Broadly, the IC50 is the concentration that gives 50% inhibition.

The target in this assay is Beta-3 Adrenergic Receptor (Homo sapiens (Human), UniProt P13945). Put plainly: Homogeneous Time-Resolved Fluorescence (HTRF) cAMP antagonist assay, IC50 determination. The settings on record: CHO-K1 cells stably expressing recombinant receptor, isoproterenol at EC90. In kind it is cell-based. In a few lines: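 CHO-K1 cells stably expressing the recombinant receptor were preincubated with compound (10-point, 5-fold dilutions; top final typically 10 or 100 μM) in PBS with 1 mM IBMX, then stimulated with isoproterenol at its EC90 for 1 h at room temperature. cAMP was read by HTRF against an on-plate standard curve.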
Sequence of Beta-3 Adrenergic Receptor (P13945 whole entry, species assumed): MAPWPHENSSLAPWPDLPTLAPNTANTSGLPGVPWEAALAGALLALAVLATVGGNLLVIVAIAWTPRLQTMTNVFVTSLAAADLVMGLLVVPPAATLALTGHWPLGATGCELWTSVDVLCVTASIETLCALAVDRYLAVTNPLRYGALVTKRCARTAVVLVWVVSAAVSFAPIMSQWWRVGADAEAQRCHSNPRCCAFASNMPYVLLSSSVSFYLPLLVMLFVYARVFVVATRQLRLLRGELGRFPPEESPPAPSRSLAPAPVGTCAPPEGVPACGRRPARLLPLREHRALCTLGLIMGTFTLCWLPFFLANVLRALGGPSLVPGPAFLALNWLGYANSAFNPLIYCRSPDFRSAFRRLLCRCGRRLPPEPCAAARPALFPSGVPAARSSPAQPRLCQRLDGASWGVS
In general terms: In TR-FRET formats the signal depends on donor and acceptor labels being close together.
`CNS(=O)(=O)c1cccc(OC[C@@H](O)CNC2COC3(CCN(S(=O)(=O)c4cnc5c(c4)N(C)CCO5)CC3)C2)c1` (stereo partly drawn) [Compound 399, 3-((2S)-2-hydroxy-3-(8-(1-methyl-2,3-dihydro-1H-pyrido[2,3-b][1,4]oxazin-7-ylsulfonyl)-1-oxa-8-azaspiro[4.5]decan-3-ylamino)propoxy)-N-methylbenzenesulfonamide]: the IC50 is 20.2 nM.
With `CNS(=O)(=O)c1cccc(OC[C@@H](O)CNC2COC3(CCN(S(=O)(=O)c4cc5c(nc4Cl)OCCN5C)CC3)C2)c1` (stereo partly drawn) [Compound 400, 3-((2S)-3-(8-(6-chloro-1-methyl-2,3-dihydro-1H-pyrido[2,3-b][1,4]oxazin-7-ylsulfonyl)-1-oxa-8-azaspiro[4.5]decan-3-ylamino)-2-hydroxypropoxy)-N-methylbenzenesulfonamide], the IC50 was 33.1 nM.
Consider `CCOc1nc2c(cc1S(=O)(=O)N1CCC3(CC1)CC(NC[C@H](O)COc1cccc(S(=O)(=O)NC)c1)CO3)N(C)CCO2` (stereo partly drawn) [Compound 401, 3-((2S)-3-(8-(6-ethoxy-1-methyl-2,3-dihydro-1H-pyrido[2,3-b][1,4]oxazin-7-ylsulfonyl)-1-oxa-8-azaspiro[4.5]decan-3-ylamino)-2-hydroxypropoxy)-N-methylbenzenesulfonamide], for which the IC50 was 25.3 nM.
`CNS(=O)(=O)c1cccc(OC[C@@H](O)CNC2COC3(CCN(S(=O)(=O)c4ccc(-c5ccccn5)cc4)CC3)C2)c1` (stereo partly drawn) [Compound 402, 3-((2S)-2-hydroxy-3-(8-(4-(pyridin-2-yl)phenylsulfonyl)-1-oxa-8-azaspiro[4.5]decan-3-ylamino)propoxy)-N-methylbenzenesulfonamide]: the IC50 came to 20.4 nM.
The figure for `CNS(=O)(=O)c1cccc(OC[C@@H](O)CNC2COC3(CCN(S(=O)(=O)c4ccc(-c5ccc(CN)cc5)cc4OC(F)(F)F)CC3)C2)c1` (stereo partly drawn) [Compound 403, 3-((2S)-3-(8-(4′-(aminomethyl)-3-(trifluoromethoxy)biphenyl-4-ylsulfonyl)-1-oxa-8-azaspiro[4.5]decan-3-ylamino)-2-hydroxypropoxy)-N-methylbenzenesulfonamide] is 80.6 nM; for `CCOc1ccc(-c2ccc(CN)cc2)cc1S(=O)(=O)N1CCC2(CC1)CC(NC[C@H](O)COc1cccc(S(=O)(=O)NC)c1)CO2` (stereo partly drawn) [Compound 404, 3-((2S)-3-(8-(4′-(aminomethyl)-4-ethoxybiphenyl-3-ylsulfonyl)-1-oxa-8-azaspiro[4.5]decan-3-ylamino)-2-hydroxypropoxy)-N-methylbenzenesulfonamide] it is 13 nM; for `CNS(=O)(=O)c1cccc(OC[C@@H](O)CN[C@H]2COC3(CCN(S(=O)(=O)c4ccc(-c5ccc(CN(C)C)cc5)cc4)CC3)C2)c1` [Compound 405, 3-((S)-3-((R)-8-(4′-((dimethylamino)methyl)biphenyl-4-ylsulfonyl)-1-oxa-8-azaspiro[4.5]decan-3-ylamino)-2-hydroxypropoxy)-N-methylbenzenesulfonamide] it is 51.8 nM.
In the case of `CNS(=O)(=O)c1cccc(OC[C@@H](O)CNC2COC3(CCN(S(=O)(=O)c4ccc(N5CCOCC5)nc4)CC3)C2)c1` (stereo partly drawn) [Compound 406, 3-((2S)-2-hydroxy-3-(8-(6-morpholinopyridin-3-ylsulfonyl)-1-oxa-8-azaspiro[4.5]decan-3-ylamino)propoxy)-N-methylbenzenesulfonamide], the IC50 stood at 31.1 nM.
As for `CNS(=O)(=O)c1cccc(OC[C@@H](O)CNC2COC3(CCN(S(=O)(=O)c4ccc(-c5cccnc5)cc4)CC3)C2)c1` (stereo partly drawn) [Compound 407, 3-((2S)-2-hydroxy-3-(8-(4-(pyridin-3-yl)phenylsulfonyl)-1-oxa-8-azaspiro[4.5]decan-3-ylamino)propoxy)-N-methylbenzenesulfonamide], the IC50 came out at 23 nM.
For the molecule `CNS(=O)(=O)c1cccc(OC[C@@H](O)CNC2COC3(CCN(S(=O)(=O)c4ccc(-c5ccncc5)cc4)CC3)C2)c1` (stereo partly drawn) [Compound 408, 3-((2S)-2-hydroxy-3-(8-(4-(pyridin-4-yl)phenylsulfonyl)-1-oxa-8-azaspiro[4.5]decan-3-ylamino)propoxy)-N-methylbenzenesulfonamide], the IC50 worked out at 39.1 nM.
Take `CNS(=O)(=O)c1cccc(OC[C@@H](O)CNC2COC3(CCN(S(=O)(=O)c4cccc(-c5nn[nH]n5)c4)CC3)C2)c1` (stereo partly drawn) [Compound 409, 3-((2S)-3-(8-(3-(2H-tetrazol-5-yl)phenylsulfonyl)-1-oxa-8-azaspiro[4.5]decan-3-ylamino)-2-hydroxypropoxy)-N-methylbenzenesulfonamide]: the IC50 came to 180 nM.
On to `CNS(=O)(=O)c1cccc(OC[C@@H](O)CNC2COC3(CCN(S(=O)(=O)c4ccc(-c5nn[nH]n5)cc4)CC3)C2)c1` (stereo partly drawn) [Compound 410, 3-((2S)-3-(8-(4-(2H-tetrazol-5-yl)phenylsulfonyl)-1-oxa-8-azaspiro[4.5]decan-3-ylamino)-2-hydroxypropoxy)-N-methylbenzenesulfonamide], for which the half-maximal inhibitory concentration (IC50) turned out to be 389 nM.
As for `CNS(=O)(=O)c1cccc(OC[C@@H](O)CNC2COC3(CCN(S(=O)(=O)c4cc(-c5ccc(CN)cc5)ccc4OC(F)(F)F)CC3)C2)c1` (stereo partly drawn) [Compound 411, 3-((2S)-3-(8-(4′-(aminomethyl)-4-(trifluoromethoxy)biphenyl-3-ylsulfonyl)-1-oxa-8-azaspiro[4.5]decan-3-ylamino)-2-hydroxypropoxy)-N-methylbenzenesulfonamide], the IC50 was found to be 9.84 nM.
Regarding `CNS(=O)(=O)c1cccc(OC[C@@H](O)CNC2COC3(CCN(S(=O)(=O)c4cc(Br)ccc4OCCN4CCCC4)CC3)C2)c1` (stereo partly drawn) [Compound 412, 3-((2S)-3-(8-(5-bromo-2-(2-(pyrrolidin-1-yl)ethoxy)phenylsulfonyl)-1-oxa-8-azaspiro[4.5]decan-3-ylamino)-2-hydroxypropoxy)-N-methylbenzenesulfonamide], the IC50 turned out to be 49.6 nM.
Consider `CNS(=O)(=O)c1cccc(OC[C@@H](O)CN[C@@H]2COC3(CCN(S(=O)(=O)c4cnc5c(c4)N(C)CCO5)CC3)C2)c1` [Compound 413, 3-((S)-2-hydroxy-3-((S)-8-(1-methyl-2,3-dihydro-1H-pyrido[2,3-b][1,4]oxazin-7-ylsulfonyl)-1-oxa-8-azaspiro[4.5]decan-3-ylamino)propoxy)-N-methylbenzenesulfonamide], for which the IC50 came to 14 nM.
With `CNS(=O)(=O)c1cccc(OC[C@@H](O)CN[C@H]2COC3(CCN(S(=O)(=O)c4cnc5c(c4)N(C)CCO5)CC3)C2)c1` [Compound 414, 3-((S)-2-hydroxy-3-((R)-8-(1-methyl-2,3-dihydro-1H-pyrido[2,3-b][1,4]oxazin-7-ylsulfonyl)-1-oxa-8-azaspiro[4.5]decan-3-ylamino)propoxy)-N-methylbenzenesulfonamide], the IC50 came out at 16.8 nM.
As for `CNS(=O)(=O)c1cccc(OC[C@@H](O)CN[C@@H]2COC3(CCN(S(=O)(=O)c4cc(-c5ccc(CN)cc5)ccc4OC(F)(F)F)CC3)C2)c1` [Compound 415, 3-((S)-3-((S)-8-(4′-(aminomethyl)-4-(trifluoromethoxy)biphenyl-3-ylsulfonyl)-1-oxa-8-azaspiro[4.5]decan-3-ylamino)-2-hydroxypropoxy)-N-methylbenzenesulfonamide], the IC50 amounted to 19.5 nM.
Turning to `CNS(=O)(=O)c1cccc(OC[C@@H](O)CN[C@H]2COC3(CCN(S(=O)(=O)c4cc(-c5ccc(CN)cc5)ccc4OC(F)(F)F)CC3)C2)c1` [Compound 416, 3-((S)-3-((R)-8-(4′-(aminomethyl)-4-(trifluoromethoxy)biphenyl-3-ylsulfonyl)-1-oxa-8-azaspiro[4.5]decan-3-ylamino)-2-hydroxypropoxy)-N-methylbenzenesulfonamide], the IC50 was 262 nM.
Then `CN1CCOc2ncc(S(=O)(=O)N3CCC4(CC3)C[C@@H](NC[C@H](O)COc3cccc(S(=O)(=O)NCCO)c3)CO4)cc21` [Compound 417, 3-((S)-2-hydroxy-3-((R)-8-(1-methyl-2,3-dihydro-1H-pyrido[2,3-b][1,4]oxazin-7-ylsulfonyl)-1-oxa-8-azaspiro[4.5]decan-3-ylamino)propoxy)-N-(2-hydroxyethyl)benzenesulfonamide], with 112 nM.
Consider `C[C@H](CO)NS(=O)(=O)c1cccc(OC[C@@H](O)CN[C@H]2COC3(CCN(S(=O)(=O)c4cnc5c(c4)N(C)CCO5)CC3)C2)c1` [Compound 418, 3-((S)-2-hydroxy-3-((R)-8-(1-methyl-2,3-dihydro-1H-pyrido[2,3-b][1,4]oxazin-7-ylsulfonyl)-1-oxa-8-azaspiro[4.5]decan-3-ylamino)propoxy)-N—((R)-1-hydroxypropan-2-yl)benzenesulfonamide], for which the IC50 is 172 nM.
With `CCOc1ccc(-c2ccc(CN)cc2)cc1S(=O)(=O)N1CCC2(CC1)C[C@H](NC[C@H](O)COc1cccc(S(=O)(=O)NC)c1)CO2` [Compound 419, 3-((S)-3-((S)-8-(4′-(aminomethyl)-4-ethoxybiphenyl-3-ylsulfonyl)-1-oxa-8-azaspiro[4.5]decan-3-ylamino)-2-hydroxypropoxy)-N-methylbenzenesulfonamide], the IC50 stood at 9.69 nM.
In the case of `CCOc1ccc(-c2ccc(CN)cc2)cc1S(=O)(=O)N1CCC2(CC1)C[C@@H](NC[C@H](O)COc1cccc(S(=O)(=O)NC)c1)CO2` [Compound 420, 3-((S)-3-((R)-8-(4′-(aminomethyl)-4-ethoxybiphenyl-3-ylsulfonyl)-1-oxa-8-azaspiro[4.5]decan-3-ylamino)-2-hydroxypropoxy)-N-methylbenzenesulfonamide], the IC50 turned out to be 10.2 nM.
`CNS(=O)(=O)c1cccc(OC[C@@H](O)CNC2COC3(CCN(S(=O)(=O)c4ccc(N5CCCCC5)nc4)CC3)C2)c1` (stereo partly drawn) [Compound 421, 3-((2S)-2-hydroxy-3-(8-(6-(piperidin-1-yl)pyridin-3-ylsulfonyl)-1-oxa-8-azaspiro[4.5]decan-3-ylamino)propoxy)-N-methylbenzenesulfonamide]: the IC50 stood at 16.9 nM.
For `CNS(=O)(=O)c1cccc(OC[C@@H](O)CNC2COC3(CCN(S(=O)(=O)c4ccc(N(C)C)nc4)CC3)C2)c1` (stereo partly drawn) [Compound 422, 3-((2S)-3-(8-(6-(dimethylamino)pyridin-3-ylsulfonyl)-1-oxa-8-azaspiro[4.5]decan-3-ylamino)-2-hydroxypropoxy)-N-methylbenzenesulfonamide], the IC50 worked out at 16.7 nM.

(Values after patent publication US11987588B2, “Modulators of the beta-3 adrenergic receptor useful for the treatment or prevention of heart failure and disorders related thereto” (Arena Pharmaceuticals, Inc., priority 2017, dated 2024).)
